Article PMC6467724 (Journal of medicinal chemistry, 2018)

Columns and labels:
[1] = mice, 40 mg/kg oral dose; cited from earlier work
[2] = cited from earlier work
[3] = mice, oral doses up to 200 mg/kg; cited from earlier work
[4] = Microsomal stability assay, human liver microsomes; type: in vitro ADME
[5] = Microsomal stability assay, rat liver microsomes; type: in vitro ADME, rat (male Sprague-Dawley)
[6] = Microsomal stability assay, mouse liver microsomes; type: in vitro ADME, mouse (male CD-1)
[7] = PK and tissue distribution assay, single oral dose; type: in vivo, BALB/c mice; conditions: Balb/c mice, single oral dose 25 mg/kg

In the case of `CC[C@@H]([C@H](C)O)n1ncn(-c2ccc(N3CCN(c4ccc(OC[C@@H]5CO[C@@](Cn6cncn6)(c6ccc(F)cc6F)C5)cc4)CC3)cc2)c1=O` [posaconazole], the “Maximal reported plasma concentration” value [1] is listed as 6 µM and the “Maximal concentration detected in humans, fold lower than in mice” value [2] is listed as 5 to 10 fold.
In the case of `O=C(N[C@@H](Cn1ccnc1)c1ccc(Cl)cc1Cl)c1ccc(-c2nnc(-c3ccccc3)o2)cc1` [VNI, (R)-N-(1-(2,4-dichlorophenyl)-2-(1H-imidazol-1-yl)ethyl)-4-(5-phenyl-1,3,4-oxadiazol-2-yl)benzamide], the Acute toxicity [3] is listed as “no acute toxicity”.
In the case of `O=C(N[C@@H](Cn1ccnc1)c1ccc(-c2ccc(F)cc2)cc1F)c1ccc(-c2nnc(-c3ccccc3)o2)cc1` [VFV, (R)-N-(1-(3,4′-difluoro-[1,1′-biphenyl]-4-yl)-2-(1H-imidazol-1-yl)ethyl)-4-(5-phenyl-1,3,4-oxadiazol-2-yl)benzamide, reference compound], the “Clint (estimated intrinsic clearance), Human” value ([4]; human pooled liver microsomes 0.5 mg/mL, 1 μM test compound) is reported as 29.9 mL/min/kg body weight, the “Clhep (hepatic clearance), Human” value ([4]; predicted from Clint, Qh 21 mL/min/kg) is reported as 12.3 mL/min/kg body weight and the “Clhep (hepatic clearance), Rat” value ([5]; predicted from Clint, Qh 70 mL/min/kg) is reported as 14.2 mL/min/kg body weight. The “Clint (estimated intrinsic clearance), Rat” value ([5]; rat pooled liver microsomes 0.5 mg/mL, 1 μM test compound) was 17.7 mL/min/kg body weight, the “Clint (estimated intrinsic clearance), Mouse” value ([6]; mouse pooled liver microsomes 0.5 mg/mL, 1 μM test compound) was 145 mL/min/kg body weight and the “Clhep (hepatic clearance), Mouse” value ([6]; predicted from Clint, Qh 90 mL/min/kg) was 55.6 mL/min/kg body weight. The “Plasma life time (time until the compound becomes undetectable)” value [7] was >24 h and the Acute toxicity [3] was “no acute toxicity”.
